Laboratory results published in patent publication US20210015834A1, “NK-1 ANTAGONISTS FOR USE IN THE TREATMENT OF OCULAR PAIN” (priority 2018, published 2021).

Key:
mouse cornea nociception = test: Measurement of cornea sensitivity, eye-wiping test (NaCl 5M); assay type: in vivo, mice; settings: for MPE increase, overall: three experiments; for MPE (maximal possible effect): one 10 μl drop
Text: 8 week-old C57BL6/N (Charles-River, Italy) and B6.Cg-Tac1^tm1Bbm/J (SP-KO mouse, Jackson) male mice were used in all experiments. Carbon dioxide inhalation and subsequent cervical dislocation were applied to euthanize the animals. All experimental protocols were approved by the Animal Care and Use Committee of the IRCCS San Raffaele Scientific Institute, in accordance with the ARVO Statement for the Use of Animals in Ophthalmic and Vision Research.
Mice 8-week-old C57BL6/N (Charles-River, Italy) and B6.Cg-Tac1^tm1Bbm/J (Jackson) corneal sensitivity was measured with the eye wiping test^36. Briefly, animals were placed individually in an empty cage for 5 min to get acclimatized; one drop (10 μl) of NaCl 5M was put into the right eye of the animal and eye wipings with the ipsilateral forepaw were counted for 30 s. Subsequently, a drop (10 μl) of Fosaprepitant (2, 10 and 50 mg/mL, powder was weighted and dissolved in PBS to reach the desired final concentration, Ivemend, Merck Sharp & Dohme B.V), PBS, Diclofenac (0.1%, Dicloftil, Farmingea) or Oxybuprocaine chloride (4 mg/ml, Novesina, Laboratoire Thea) was put on the same eye and left for 3 min. […] Three experiments were performed, each with 8 mice per group. In a sub-group of experiments, cornea sensitivity was tested 24 hours after 10 days of topical treatment (10 μl) with 2 mg/mL Fosaprepitant (6 times/day).
Anti-nociceptive effect was calculated as maximal possible effect (% MPE or MPE %) for each mouse according to the following formula:
% MPE=100×(post-treatment wipe count−pre-treatment wipe count)/(0−pre-treatment wipe count).
Unpaired t-test was used to evaluate the differences in nociception after different treatments. A p value <0.05 was considered to be statistically significant. The statistical software GraphPad Prism 5.0 (GraphPad Software, La Jolla, Calif.) was used for all analyses. All data were expressed as mean±standard error of the means (SEM). All methods were performed in accordance with the relevant guidelines and regulations.

ocular pain = test: Subjective ocular pain score (0-10) in a treated patient; assay type: in vivo, human
Text: (§1) One patient affected with Stage II (Foster) ocular cicatritial pemphigoid and intractable ocular pain was recruited on a compassionate trial of Fosaprepitant, upon administration and acceptance of informed consent, after consultation with the San Raffaele Hospital Ethics Committee. The patient reported the pain to be located on the ocular surface of both eyes and rated it 9/10 on the right eye and 2/10 on the left eye. Visual acuity was light perception in both eyes and the left eye presented a descemetocele. In the right eye the cornea presented diffuse punctate keratopathy, and conjunctival scarring. All the medications in use at time of enrollment were maintained. These included topical medications: tacrolimus 0.02% 3 times a day, dexamethasone phosphate twice a day, Timolol-brinzolamide drops twice a day, lubricants 6 times a day. In addition, the patient was taking systemic prednisone (25 mg); other systemic immunosuppressants had been previously tried to control the disease but had been suspended due to inefficacy or intolerance. In an unsuccessful attempt to control ocular pain, the prednisone dosage was raised up to 25 mg per day and the patient had been started 3 months before with opioid analgesic Tapentadol 50 mg bid and paracetamol 1000 mg tid. Only the right eye was treated. In this study, the patient received treatment with ocular Fosaprepitant 10 mg/mL (50 μl) 6 times/day for 30 days.
(§2) Different filament lengths were tried (starting from 60 mm, 5 mm intervals) until response, and noted. In order to quantify subjective ocular pain, the treated patient was asked to rate the pain felt in the treated eye on a scale from 0 (no pain) to 10 (worst possible pain) before and after the treatment^38.

corneal sensitivity = test: Corneal sensitivity, Cochet-Bonnet aesthesiometer, in a treated patient; assay type: in vivo, human
Text: as §1
To test corneal sensitivity, a Cochet-Bonnet aesthesiometer (60 mm in length, 0.12 mm diameter) was used. The head of the subject was placed on the chinrest of the slit lamp, and the Cochet-Bonnet filament was neared the volunteer's eye with a perpendicular angle.
as §2

ocular surface [1] = test: Gross signs of ocular surface toxicity in mice; settings: topical Fosaprepitant
cornea = settings: topical Fosaprepitant 10 mg/ml 6 times a day; cited from earlier work
ocular surface [2] = test: Gross signs of ocular surface toxicity in the human subject; assay type: in vivo; settings: topical Fosaprepitant 10 mg/ml 6 times a day for 30 days
Text: as §1, with “In this study, the patient received treatment with ocular Fosaprepitant 10 mg/mL (50 μl) 6 times/day for 30 days.” left out

[3] = Fosaprepitant 10 mg/ml 6 times a day, after one month of treatment

## O=C(O)Cc1ccccc1Nc1c(Cl)cccc1Cl [Diclofenac]
Mouse cornea nociception; Diclofenac 0.1% topical, p=0.0029 vs Fosaprepitant 10 mg/ml
  % MPE: 69.66%

## C[C@@H](O[C@H]1OCCN(Cc2nc(O)n(P(=O)(O)O)n2)[C@H]1c1ccc(F)cc1)c1cc(C(F)(F)F)cc(C(F)(F)F)c1 [Fosaprepitant, [3-{[(2R,3S)-2-[(1R)-1-[3,5-bis(trifluoromethyl)phenyl]ethoxy]-3-(4-fluorophenyl)morpholin-4-yl]methyl}-5-oxo-2H-1,2,4-triazol-1-yl]phosphonic acid]
Ocular pain; Fosaprepitant 10 mg/ml 6 times a day, 2 hours after the first instillation, baseline 9/10
  corneal pain score: 0/10
Ocular pain; [3]
  pain score: 0/10
Ocular pain; follow-up visit one month after study exit, not constant
  pain score: 1/10
Mouse cornea nociception; Fosaprepitant 2 mg/ml 6 times a day for 10 days, compared to 10 days PBS instillation, p=0.0195
  change of cornea sensitivity: −31.4%
Mouse cornea nociception; Fosaprepitant 2 mg/ml one time, topical
  reduction of cornea sensitivity: did not significantly reduce cornea sensitivity
Mouse cornea nociception; Fosaprepitant 2 mg/ml, single shot vs 10 days treatment, p=0.0174
  change of cornea sensitivity: −27.1%
Mouse cornea nociception; Fosaprepitant 10 mg/ml single administration vs PBS, p=0.029
  reduction of nociception: −28.1%
Mouse cornea nociception; Fosaprepitant 10 mg/ml topical, p=0.0006 vs PBS
  maximum possible analgesic effect (MPE): 44.52%
Mouse cornea nociception; Fosaprepitant 50 mg/ml administered once, 30 minutes after administration
  corneal pain measured as eye wiping counts vs placebo: significantly reduces corneal pain
Mouse cornea nociception; Fosaprepitant 50 mg/ml topical, p=0.0001 vs PBS
  maximum possible analgesic effect (MPE): 52.62%
Mouse cornea nociception; Fosaprepitant 50 mg/ml vs PBS, p<0.0001
  MPE increase, overall: 21.03 points
Mouse cornea nociception; Fosaprepitant 50 mg/ml, first experiment, SD 14.6
  MPE (maximal possible effect): 48.4%
Mouse cornea nociception; Fosaprepitant 50 mg/ml, second experiment, SD 24.9
  MPE (maximal possible effect): 43.2%
Mouse cornea nociception; Fosaprepitant 50 mg/ml, third experiment, SD 16.6
  MPE (maximal possible effect): 44.2%
Mouse cornea nociception; Fosaprepitant single administration, 10 mg/ml vs 2 mg/ml, p=0.0005
  reduction of nociception: −23.1%
Mouse cornea nociception; single administration
  lower effective concentration in reducing corneal pain: 10 mg/mL
Mouse cornea nociception; single administration of Fosaprepitant 10 mg/ml, p<0.0001
  corneal sensitivity reduction, WT mice before vs after treatment: −47.9
Corneal sensitivity; Fosaprepitant 10 mg/ml 6 times a day, 2 hours after the first instillation, baseline 60 mm
  Cochet Bonnet aesthesiometry: 50 mm
Corneal sensitivity; [3]
  Cochet Bonnet aesthesiometry, reduction: 50%
Corneal sensitivity; follow-up visit one month after study exit
  corneal sensitivity: 60 mm
Ocular surface [1]
  signs of ocular surface toxicity: no gross signs of ocular surface toxicity
cornea
  signs of toxicity to the cornea: did not show obvious signs of toxicity to the cornea
Ocular surface [2]
  signs of ocular surface toxicity: no gross signs of ocular surface toxicity

## CCCCOc1cc(C(=O)OCCN(CC)CC)ccc1N [Oxybuprocaine]
Mouse cornea nociception; Oxybuprocaine 4 mg/ml topical, p<0.0001 vs Fosaprepitant 10 mg/ml
  % MPE: 80.59%
Mouse cornea nociception; Oxybuprocaine 4 mg/ml vs Fosaprepitant 50 mg/ml, p<0.0001
  MPE difference, Oxybuprocaine higher than Fosaprepitant: 35.89 MPE points
Mouse cornea nociception; Oxybuprocaine 4 mg/ml vs PBS, p<0.0001
  MPE increase, overall: 56.92 points
Mouse cornea nociception; Oxybuprocaine 4 mg/ml, topical
  corneal pain measured as eye wiping counts vs placebo and Fosaprepitant: significantly reduces corneal pain
Mouse cornea nociception; oxybuprocaine chloride 4 mg/ml, first experiment, SD 9.7
  MPE (maximal possible effect): 80.8%
Mouse cornea nociception; oxybuprocaine chloride 4 mg/ml, second experiment, SD 13.9
  MPE (maximal possible effect): 84.1%
Mouse cornea nociception; oxybuprocaine chloride 4 mg/ml, third experiment, SD 10.9
  MPE (maximal possible effect): 78.2%
